Data set [1] relates to subjects with open-angle glaucoma or ocular hypertension, non-study eyes with normal IOP. Conditions: 0.024% once daily in the evening up to 12 months, cited from earlier work.
The subject of data set [2] is ischemia/reperfusion injury of the optic nerve induced by endothelin-1 (ET-1) in rabbits. The data set is described as follows: Ophthalmic artery resistive index (OA-RI) by ecocolor Doppler in ET-1 ischemia/reperfusion rabbit model. In kind it is in vivo, New Zealand white (NZW) rabbits. Also noted: key: Pourcelot resistive index = (PSV−EDV)/PSV. Conditions: for Ophthalmic artery resistive index (OA-RI), Baseline: prior to ET-1 dosing and prior to test item. On the procedure: (§1) This series of experiments were performed to determine the effect of Compound (I) on ocular vascular reactivity i.e. ophthalmic artery resistive index (OA-RI) and, consequently, on retinal function after repeated ocular topical dosing in a well-defined model of ischemia/reperfusion injury of the optic nerve induced by the retrobulbar injection of endothelin-1 (ET-1) in rabbits.
(§2) Adult male New Zealand white (NZW) rabbits weighting 1.5-2.0 kg were used. The animals were kept in individual cages, food and water were provided ad libitum. The ischaemia/reperfusion lesion of the optic nerve was obtained by subtenonian injection twice a week with 500 μL of 250 nM ET-1 (Fluka, Israel) in water using a lacrimal cannula under anesthesia produced by ketamine (20 mg/kg, Lobotor, ACME, 100 mg/ml) and xilazine (5 mg/kg, Sedaxylan 2%, Dechra Veterinary Products S.r.l) intramuscularly. Animals were treated with ET-1 for 6 weeks. Compound (I) 0.1% (1 mg/mL) solution or vehicle were administered as eye drop (30 μL/eye), twice a day (around 10:00 AM and 4:00 PM) starting 2 weeks after ET-1 first dosing until the end of the experiment.
Ophthalmic Artery Resistive Index (OA-RI) was estimated using an ecocolor Doppler DynaView™ II SSD-1700 (Aloka Holding Europe AG, Milan, Italy) prior to ET-1 treatment (baseline, time 0), and weekly thereafter until the end of the study. From week 2 to week 4, morning dosing with test article or vehicle were omitted on the day of hemodynamic measurements in order to have virtually drug-free conditions (16-18 h post last dose) at the time of testing. Pourcelot resistive index for ophthalmic artery (OA-RI) was calculated as following: (PSV−EDV)/PSV where PSV and EDV refer to Peak Systolic Velocity and End Diastolic Velocity, respectively.

In data set [3] the test system is patients with open-angle glaucoma or ocular hypertension. Put plainly: Phase 2 clinical trial, reduction of elevated intraocular pressure (IOP). In kind it is in vivo, human. On the procedure:
The efficacy of Compound (I) for the reduction of elevated intraocular pressure (IOP) was evaluated in a Phase 2 clinical trial conducted in 433 patients with open-angle glaucoma or ocular hypertension, treated once daily for 27 days.

In data set [4] the test system is ischemia/reperfusion injury of the optic nerve induced by endothelin-1 (ET-1) in rabbits. The data set is described as follows: Electroretinogram (ERG) in ET-1 ischemia/reperfusion rabbit model. Format: in vivo, New Zealand white (NZW) rabbits. On the procedure:
as §1, §2
Electroretinogram (ERG). Topical anesthesia was applied using one drop […] oxybuprocaine hydrochloride, 4 mg/ml. The eyes were then dilated by topical application of tropicamide 1% and, when needed, adapted to darkness for at least 2 hours prior to standard ERGs recording in both eyes using contact lens corneal electrodes so to have sufficiently stable and amplified recordings. The ERG signals [(amplitude, microvolts (μV)] were recorded using Retimax (CSO, Florence, Italy) and according to the current International Society for Clinical Electrophysiology (ISCEV) indications; specifically, the dark-adapted 0.01 ERG (rod response), dark-adapted 3.0 ERG (combined rod-cone response) and, light-adapted 3.0 (cone response) were recorded. Flashes intensity varied: • a) from 0.01 photopic cd·s·m^−2 to 0.025 scotopic candela-seconds per meter squared (cd·s·m^−2) with a minimum interval between flashes of 2 s for the dark-adapted 0.01 ERG; • b) from 3.0 photopic cd·s·m^−2 to 7.5 scotopic cd·s·m^−2 with a minimum interval between flashes of 10 s for the dark-adopted 3.0 ERG • c) from 3.0 photopic cd·s·m^−2 to 7.5 scotopic cd·s·m^−2 with a minimum interval between flashes of 0.5 s and a light adaptation strength of 30 cd·s·m^−2 for the light-adopted 3.0 ERG. In all cases ERG recordings lasted 250 ms. […].
Measurements were taken prior ET-1 first dose (baseline, time 0) and then at the end of week-2 (prior to vehicle- or Compound (I) first day-first dose) and at the end of week-6 (36 h after vehicle or Compound (I)-last day-last dose).

[5] abbreviates: 0.1% solution, 30 μL/eye eye drop bid.
Where [6] appears, read: 0.1% solution, 30 μL/eye eye drop bid, listed as Cpd (1).
[7] abbreviates: 0.1% solution, 30 μL/eye bid, 36 h after last dose, ± S.E.M.
The mark [8] stands for this setting: after 2 weeks ET-1, prior to first dose of test item, ± S.E.M.
[9] abbreviates: prior to ET-1 and test item, ± S.E.M.

The values that follow come from patent publication US20240390390A1, “NITRIC OXIDE RELEASING PROSTAMIDE AS NEUROPROTECTIVE AGENT” (Nicox SA, priority 2021, published 2024).

Turning to `O=C(CCC/C=C\C[C@@H]1[C@@H](CC[C@@H](O)CCc2ccccc2)[C@H](O)C[C@@H]1O)OCCCCO[N+](=O)[O-]` [Latanoprostene Bunod], the “IOP lowering from baseline, Japanese population” value in data set [1] (fellow eyes with baseline IOP ≤19 mmHg) is listed as 3.2-3.9 mmHg. The “IOP lowering from baseline, Caucasian population” value in data set [1] (fellow eyes with baseline IOP ≤21 mmHg) is recorded as 4.2-4.9 mmHg.
Consider `CCNC(=O)CCC/C=C\C[C@@H]1[C@@H](/C=C/[C@H](CCc2ccccc2)OC(=O)CCCCCO[N+](=O)[O-])[C@H](O)C[C@@H]1O` [Compound (I), Hexanoic acid, 6-(nitrooxy)-, (1S,2E)-3-[(1R,2R,3S,5R)-2-[(2Z)-7-(ethylamino)-7-oxo-2-hepten-1-yl]-3,5-dihydroxycyclopentyl]-1-(2-phenylethyl)-2-propen-1-yl ester], for which, in data set [2] (setting [5]), the “Ophthalmic artery resistive index (OA-RI), ET-1 (3-weeks) + Test items (1 week daily bid)” value was found to be 0.35 ± 0.03; the “Ophthalmic artery resistive index (OA-RI), ET-1 (4-weeks) + Test items (2 weeks daily bid)” value was 0.32 ± 0.03; the “Ophthalmic artery resistive index (OA-RI), ET-1 (5 weeks) + Test items (3 weeks daily bid)” value is given as 0.32±0.03; the “Ophthalmic artery resistive index (OA-RI), ET-1 (6 weeks) + Test items (4 weeks daily bid)” value was determined as 0.33±0.02. In addition, in data set [2] (setting [6]), the “Ophthalmic artery resistive index (OA-RI), ET-1 (5 weeks) + Test items (3 weeks daily bid)” value is recorded as 0.32 ± 0.03 and the “Ophthalmic artery resistive index (OA-RI), ET-1 (6 weeks) + Test items (4 weeks daily bid)” value stood at 0.33 ± 0.02. In data set [2] (after 2 weeks ET-1, prior to first dose of test item), the “Ophthalmic artery resistive index (OA-RI), ET-1 (2 weeks)” value stood at 0.36 ± 0.03. Besides, the “Ophthalmic artery resistive index (OA-RI), Baseline” value in data set [2] amounted to 0.30±0.02. The “Ophthalmic artery resistive index (OA-RI), Baseline” value in data set [2] (listed as Cpd (1)) stood at 0.30 ± 0.02. Further, the “Conjunctival hyperemia, treated patients” value in data set [3] (Phase 2, highest dose tested) is given as 16.8%. The Tolerability entry in data set [3] (Phase 2, once daily for 27 days) is listed as “well tolerated”. In addition, in data set [4] (setting [7]), the “ERG Amplitude, Dark adapted 0.01 (Rod response), ET-1 (6 weeks) + Test items (4 weeks daily bid)” value is 44.3 ± 4.5 μV; the “ERG Amplitude, Dark adapted 3.0 (Rod/cone response), ET-1 (6 weeks) + Test items (4 weeks daily bid)” value is 122.8 ± 11.4 μV; the “ERG Amplitude, Light adapted 3.0 (cone response), ET-1 (6 weeks) + Test items (4 weeks daily bid)” value was 64.2 ± 6.8 μV. Also, in data set [4] (setting [8]), the “ERG Amplitude, Dark adapted 0.01 (Rod response), ET-1 (2 weeks)” value was found to be 37.6 ± 6.2 μV; the “ERG Amplitude, Dark adapted 3.0 (Rod/cone response), ET-1 (2 weeks)” value was 96.6 ± 9.4 μV; the “ERG Amplitude, Light adapted 3.0 (cone response), ET-1 (2 weeks)” value is on record as 60.2 ± 4.3 μV. Also, the “Impairment in the ERG wave amplitude versus vehicle” value in data set [4] (eyes treated for 4 weeks, dark-adapted 0.01, dark-adapted 3.0 and Light-adapted 3.0) is recorded as “significantly (p<0.05) less impairment”. Further, in data set [4] (setting [9]), the “ERG Amplitude, Dark adapted 0.01 (Rod response), Baseline” value turned out to be 42.3 ± 6.9 μV; the “ERG Amplitude, Dark adapted 3.0 (Rod/cone response), Baseline” value was 118.0 ± 10.3 μV; the “ERG Amplitude, Light adapted 3.0 (cone response), Baseline” value was determined as 67.6 ± 6.4 μV.
